These results are taken from PubChem BioAssay (NCI).

Among the test systems are RPMI-8226 leukemia; HL-60(TB) leukemia; NCI-H23 lung; MDA-MB-231 breast; NCI-H226 lung; HOP-92 NSCLC; M14 melanoma; ACHN renal; A549 NSCLC; A498 renal; EKVX NSCLC; OVCAR-3 ovarian; MCF7 breast; MDA-N; IGROV1 ovarian; SF-268 CNS; OVCAR-4 ovarian; HCT-116 colon; HCC-2998 colon; SNB-75 CNS.
Holding throughout (assay): inhibition of tumour cell growth, NCI panel, 48 h

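Interpolation was linear, between the two tested concentrations surrounding the appropriate level; five concentrations were tested over 48 hours in 96-well plates. TGI denotes the concentration required for complete inhibition of growth.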

On to `Cc1ccc2c(=O)c3cccc(CC(=O)O)c3[nH]c2c1C`, for which the TGI in the test with RPMI-8226 leukemia, with HL-60(TB) leukemia, in the test on NCI-H23 lung, with MDA-MB-231 breast, with NCI-H226 lung and in the test on HOP-92 NSCLC was greater than 100 µM each time. In addition, the TGI in the test on M14 melanoma, with ACHN renal, in the test with A549 NSCLC, in the test on A498 renal, in the test on EKVX NSCLC and in the test on OVCAR-3 ovarian was greater than 100 µM in each case. Besides, the TGI with MCF7 breast was greater than 100 µM; in the test on MDA-N, greater than 100 µM; in the test with IGROV1 ovarian it was greater than 100 µM; with SF-268 CNS it was 90.5 µM; in the test on OVCAR-4 ovarian it was greater than 100 µM; in the test with HCT-116 colon it was greater than 100 µM.
On to `COc1cc(C)c2c(=O)c3ccccc3n(C)c2c1`, for which the TGI was 69.7 µM with HL-60(TB) leukemia; 77 µM in the test on NCI-H23 lung; greater than 100 µM in the test on HCC-2998 colon; greater than 100 µM in the test on MDA-MB-231 breast; 69 µM with NCI-H226 lung; 72.8 µM in the test on SNB-75 CNS. Further, the TGI with HOP-92 NSCLC is 25.8 µM; with M14 melanoma, 60.8 µM; in the test on ACHN renal, 55.7 µM; in the test with A549 NSCLC, greater than 100 µM; in the test with A498 renal, 56.1 µM; in the test with EKVX NSCLC it was 91.9 µM. Besides, the TGI with OVCAR-3 ovarian was 52.7 µM; in the test with MCF7 breast, greater than 100 µM; in the test with MDA-N it was greater than 100 µM; with IGROV1 ovarian, 89.8 µM; in the test with SF-268 CNS, 95.9 µM; in the test on OVCAR-4 ovarian, 45.6 µM. Further, the TGI in the test with HCT-116 colon stood at 34 µM.
On to `N#Cc1c(O)c(N=Nc2ccccc2F)c(=O)n2c1[nH]c1ccccc12`, for which the TGI in the test on HL-60(TB) leukemia was greater than 100 µM; with NCI-H23 lung, greater than 100 µM; with HCC-2998 colon, greater than 100 µM; in the test on MDA-MB-231 breast, 90.8 µM; in the test with NCI-H226 lung it was greater than 100 µM; in the test on SNB-75 CNS it was greater than 100 µM. Also, the TGI in the test on HOP-92 NSCLC is 60.3 µM; with M14 melanoma it was greater than 100 µM; in the test on ACHN renal, greater than 100 µM; with A549 NSCLC, greater than 100 µM; with A498 renal, greater than 100 µM; with EKVX NSCLC, greater than 100 µM. Moreover, the TGI in the test on OVCAR-3 ovarian, in the test with MCF7 breast, in the test on MDA-N, in the test on IGROV1 ovarian, with SF-268 CNS and with OVCAR-4 ovarian was greater than 100 µM each time. The TGI in the test on HCT-116 colon is greater than 100 µM.
Take `Nc1nc(N)c(NC(=O)CCCO)c(=O)[nH]1`: the TGI with RPMI-8226 leukemia, in the test on NCI-H23 lung, in the test with HCC-2998 colon, with MDA-MB-231 breast, with NCI-H226 lung and in the test with SNB-75 CNS was greater than 100 µM each time. Also, the TGI in the test on HOP-92 NSCLC, in the test with M14 melanoma, in the test with ACHN renal, with A549 NSCLC, in the test on A498 renal and in the test with EKVX NSCLC was greater than 100 µM each time. Moreover, the TGI in the test with OVCAR-3 ovarian, in the test on MCF7 breast, in the test with MDA-N, in the test with IGROV1 ovarian, with SF-268 CNS and in the test with OVCAR-4 ovarian was greater than 100 µM in each case. This molecule yielded a TGI in the test with HCT-116 colon greater than 100 µM.
As to `COC(=O)c1sc2ncc3c(c2c1N)CCCCCC3`, the TGI in the test on RPMI-8226 leukemia, in the test with NCI-H23 lung, in the test on HCC-2998 colon, in the test with MDA-MB-231 breast, with NCI-H226 lung and with SNB-75 CNS was greater than 100 µM in each case. The TGI in the test with HOP-92 NSCLC, in the test with M14 melanoma, with ACHN renal, in the test on A549 NSCLC, in the test on A498 renal and with EKVX NSCLC was greater than 100 µM each time. Besides, the TGI in the test on OVCAR-3 ovarian, in the test on MCF7 breast, with MDA-N, in the test with IGROV1 ovarian, in the test with SF-268 CNS and with OVCAR-4 ovarian was greater than 100 µM in each case. The TGI in the test with HCT-116 colon is greater than 100 µM.
In the case of `c1cc(Sc2nc(Sc3ccncc3)nc(Sc3ccncc3)n2)ccn1`, the TGI with RPMI-8226 leukemia, in the test with HL-60(TB) leukemia, with NCI-H23 lung, in the test with HCC-2998 colon, in the test on MDA-MB-231 breast and in the test on NCI-H226 lung was greater than 100 µM in each case. Moreover, the TGI with HOP-92 NSCLC, in the test with M14 melanoma, in the test with ACHN renal, with A549 NSCLC, with A498 renal and in the test with EKVX NSCLC was greater than 100 µM in each case. Moreover, the TGI in the test with OVCAR-3 ovarian, in the test with MCF7 breast, with MDA-N, with IGROV1 ovarian, in the test on SF-268 CNS and with OVCAR-4 ovarian was greater than 100 µM throughout. The same molecule yielded a TGI in the test with HCT-116 colon greater than 100 µM.
Regarding `O=C(COc1ccc(OCC(=O)N2C(=O)CSC2=Nc2ccccc2)cc1)N1C(=O)CSC1=Nc1ccccc1`, the TGI with RPMI-8226 leukemia was greater than 100 µM; in the test with NCI-H23 lung, greater than 100 µM; with HCC-2998 colon, 44.2 µM; in the test on MDA-MB-231 breast it was 90.1 µM; in the test on NCI-H226 lung, greater than 100 µM; with SNB-75 CNS, greater than 100 µM. The TGI in the test on HOP-92 NSCLC, in the test on M14 melanoma, in the test with ACHN renal, in the test with A549 NSCLC, in the test on A498 renal and in the test with EKVX NSCLC was greater than 100 µM in each case. The TGI is greater than 100 µM in the test on MCF7 breast; 79.7 µM in the test with MDA-N; 82.8 µM in the test on IGROV1 ovarian; greater than 100 µM in the test on SF-268 CNS; greater than 100 µM in the test with OVCAR-4 ovarian; 27.3 µM in the test on HCT-116 colon.
